Laboratory results taken from US20030087947A1, “Novel photosensitizers of 9-hydroxypheophorbide-a derivatives used for photodynamic therapy” (priority 2000, published 2003).

Experiments:
[1] = tested on: lung cancer A549 cell line; test: Cytotoxicity of photosensitizer without irradiation (dark culture, cell death rate); format: cell-based; conditions: 75 μg/ml, dark culture room, 48 hours, no irradiation, mean of 5 experiments
Description: (§1) In order to minimize the side light reaction by natural light and lamp, the cell distribution and medium exchange were carried out in green light (500 nm), where the experimental samples were not reacted. After 75 μg/ml of reagent treatment on each 10 dishes at the dark culture room, the experimental samples were cultured for 48 hours. Then, the cell death rate was measured. The data was calculated as a mean value after 5 times experiments. […] Further, the cytotoxicity of 9-HPbD-a could be neglectable.

[2] = tested on: lung cancer A549 cell line; test: In-vitro photodynamic therapy efficacy (cell death after irradiation); format: cell-based
Description: The cell line added with “Photogem” was treated and irradiated by red light (570˜650 nm, 0.35 mW/cm^2, 315 J/m^2) from fluorescent lamp and the test sample was treated and irradiated by same red light and laser (660 nm, 0.35 mW/cm^2, 315 J/m^2). After irradiation treatment, the cell line was cultured by adding new medium and 10% of fetal calf serum at 37° C. The cytotoxicity was measured by clonogenic assay after 8 days.
The dose-response curve was prepared after following treatment; i) treating each 25 µg/ml of Photogem, 10-hydroxypheophytin-a and 9-hydroxypheophorbide-a (“9-HPbD-a”) to each cell line; ii) laying them for 2 hours; and iii) treating and irradiating the 660 nm light (315 J/m^2). To the Photogem sample, the light (630±10 nm) was used by 1 KW Xenon lamp (Model A 5000; Photon Technology International Inc.; Power density 75 mW/cm^2) equipped with 5 mm diameter of liquid light guide (2000A, Luminex, Munich, Germany).
as §1
Further, in a small amount (0.75 μg/ml), high cell death effect was detected. Using another synthesized compound of 9-HPbD-a in the other batch, the experiment was performed according to same protocol again. We detected the same result through the repeated experiments.
With a very small amount 0.0185 μg/ml of administration, the cell death treated with 9-HPbD-a occurred according to the increase of total light dose.

[3] = tested on: cyclin B1; test: Western blot analysis of cell cycle regulation during photodynamic therapy; format: cell-based; conditions: 75˜0.0185 μg/ml, 20 joule total light dose
Description: FIG. 1 is a photograph showing cell cycle regulation after treating 9-hydroxypheophorbide-a of formula (I) to the cancer cell line.
The change of cell cycle is a key element for evaluating cancer treatment. In most anti-cancer agents, the growth of cancer cells is suppressed by regulating the expression of cell cycle regulation gene. In this example, the change of cell cycle was measured using 9-HPbD-a during the photodynamic therapy. Using various cencentrations of photosensitizer (75˜0.0185 μg/ml) under 20 joule in total light dose, Western blot analysis was carried out to detect the change of cell cycle in accordance with change of regulation activity of cell cycle regulation gene.

[4] = tested on: cancer cell line; test: FACS analysis of cell cycle; format: cell-based; conditions: FACS analysis after treatment
[5] = tested on: SNU-1041 implanted tumor; test: Therapeutic effect at the implanted tumor (3 groups, bare fiber tip laser); format: in vivo, nude mice BALB/C/nu/nu; conditions: among 10 cases; intratumoral injection 0.1˜0.2 ml, 660 nm diode laser after 1˜4 hours
Description: As experimental animals, 6 weeks aged male nude mice BALB/C/nu/nu were employed, supplying sterilized water and sterilized feed. These animals were bred in filter-top cage under proper temperature and moisture. To implant cultured cancer cell lines into nude mouse, 0.1 ml of SNU-1041 cell line suspension (10^7 cells/0.1 ml) was injected subcutaneously. After injection, the tumor occurred and the volume of tumor became increased after more than 8 weeks observation.
Plain melanoma cell line SNU-1041 was implanted into nude mouse. After the lapse of 8 weeks, it was observed that the tumor became spread in all body. The photodynamic therapy was performed only after the tumor volume became 100˜600 mm^3.
The experimental groups were divided into 3 groups for photodynamic therapy. 660 nm diode laser was inserted and irradiated using bare fiber tip. By monitoring the temperature outside of the tumor, the therapeutic effect caused by hyperthermia was removed. The optimal irradiation strength and time were measured.
The photodynamic therapy was performed when the volume of implanted tumor became about 100˜600 mm^3. The experimental groups were divided into 3 groups.
0.1˜0.2 ml of 9-HPbD-a (0.75 mg/ml) was injected into tumor using 30G syringe. After 1˜4 hours, 660 nm diode laser was irradiated using […] fiber optic tip. […]

[6] = tested on: SNU-1041 implanted tumor; test: Photodynamic therapy using 9-HPbD-a (6 groups, tumor volume and RTG); format: in vivo, nude mice BALB/C/nu/nu
Description: The experimental groups were divided into 6 groups when the volume of implanted tumor became about 100˜600 mm^3. Following treatment was performed and the change of tumor was observed.
With only 0.1˜0.15 ml of administration of 9-HPbD-a and liposome conjugate into the tumor, the change of tumor was observed without irradiation.
With only 0.1˜0.15 ml of administration of Photogem into the tumor, the change of tumor was observed without irradiation.
0.1˜0.15 ml of Photogem was administered into the tumor.
0.1˜0.15 ml of 9-HPbD-a and liposome conjugate was administered into the tumor.
The photodynamic therapy was initiated after 2 weeks from implantation of cancer cell line, when the volume of tumor became about 100˜600 mm^3 (FIG. 6).
The measurements of tumor volume were carried out at the time of just before administration of test material; just after administration of 9-HPbD-a; 1 week after administration; 2 weeks after administration; 3 weeks after administration; and 4 weeks after administration. The anti-cancer effect was evaluated by the volume of tumor. The calculation of volume was carried out by using following equation.
(V=volume, A=long axis, B=short axis, C=height)
The evaluation of anti-cancer effect was decided after 4 weeks observation of tumor volume. […] FIG. 7 is a photograph showing that the tumor is treated by administration of 9-HPbD-a with 660 nm diode laser irradiation.

[7] = decomposing slowly in the room temperature; cited from earlier work
[8] = when used in more than a certain amount; cited from earlier work
[9] = 0.0185 μg/ml, total light dose 100 joule
[10] = 0.0375 μg/ml, total light dose 100 joule
[11] = 0.075 μg/ml, total light dose 100 joule
[12] = 0.75 μg/ml, total light dose 20 joule, 665 nm monochromatic light
[13] = 0.75 μg/ml, total light dose 100 joule
[14] = 7.5 μg/ml, total light dose 20 joule, 665 nm monochromatic light
[15] = 75 μg/ml, total light dose 20 joule, 665 nm monochromatic light
[16] = after 4 weeks from treatment, administration into tumor with 660 nm diode laser irradiation

SMILES | Cytotoxicity (cell death rate) [1] | Efficacy (cell death) [2, 9] | Efficacy (cell death) [2, 10] | Efficacy (cell death) [2, 11] | Efficacy (cell death) [2, 12] | Efficacy (cell death) [2, 13] | Efficacy (cell death) [2, 14] | Efficacy (cell death) [2, 15] | Concentration, relative to known photosensitizer concentration, showing considerable cell death effect ([2]; A549, total light dose 20 joule) | Amount of cyclin B1 [3] | Cell cycle effect [4] | Cases showing complete elimination of tumor [5] | Cases showing partial elimination of tumor [5] | Relative tumor growth (RTG) [6, 16] | Volume of tumor [6, 16] | Change of tumor volume ([6]; photosensitizer into the tumor only, without irradiation (Group 3 and 4)) | Stability [7] | Efficacy (cell death) ([2]; 7.5 μg/ml, total light dose 100 joule) | Toxicity [8]
C=Cc1c(C)c2cc3nc(c4c5[nH]c(cc6nc(cc1[nH]2)C(C)=C6CC)c(C)c5C(O)[C@@H]4C(=O)OC)[C@@H](CCC(=O)O)[C@@H]3C (stereo partly drawn) [9-HPbD-a, 9-hydroxypheophorbide-a] | 10.05% | 10% | 25% | 100% | 10˜20% | 100% | 100% | 100% | 1/100 | rapidly declined | cell cycle arrest occurred in G2/M cell cycle | 3 cases | 7 cases | 3.5 | 646 mm^3 | no observation of decline of tumor volume |  |  | 
C=Cc1c(C)c2cc3nc(c4c5[nH]c(cc6nc(cc1[nH]2)C(C)=C6CC)c(C)c5C(=O)[C@@H]4C(=O)OC)[C@@H](CCC(=O)O)[C@@H]3C [pheophorbide-a] |  |  |  |  |  |  |  |  |  |  |  |  |  |  |  |  | low stability |  | 
C=Cc1c(C)c2cc3nc(c4c5[nH]c(cc6nc(cc1[nH]2)C(C)=C6CC)c(C)c5C(=O)C4(O)C(=O)OC)C(CCC(=O)OCC=C(C)CCCC(C)CCCC(C)CCCC(C)C)C3C (stereo not drawn) [10-hydroxypheophytin-a, reference compound] | 3.94% | 0% | 0% | 0% | 0% | 5.85% | 5˜10% | <70% |  |  |  |  |  |  |  |  |  | 100% | fatal toxicity
